Legend:
Format in all cases: ADME, Microsome
Liver microsomes [1] = assay: Irreversible covalent binding in human liver microsomes at 100 uM after 30 mins; conditions: 0.5 h
Liver microsomes [2] = assay: Irreversible covalent binding in human liver microsomes at 10 uM after 1 hr
Liver microsomes [3] = assay: Irreversible covalent binding in rat liver microsomes after 1 hr

Activity (Liver microsomes [1])	Activity (Liver microsomes [2])	Activity (Liver microsomes [3])	SMILES
0.06%	7 pmol/mg	–	[3H]C([3H])([3H])S(=O)(=O)c1ccc(-c2ccc([C@H](N[C@@H](CC(C)C)C(=O)NCC#N)C(F)(F)F)cc2)cc1
0.5%	70 pmol/mg	–	COCCN1CCC(Cc2ccc(C(=O)NCc3cnc(C#N)nc3NCC(C)(C)C)cc2)CC1
3.6%	460 pmol/mg	550 pmol/mg	N#CN1CCC(NS(=O)(=O)c2ccccc2)C1 (configuration not stated)
